Here are results for two compounds from patent US20230405063A1, “USE OF PROBIOTIC COMPONENT AND PHARMACEUTICAL COMPOSITION CONTAINING PROBIOTIC COMPONENT” (CHENGDU KUACHANGAOPU MEDICAL TECHNOLOGY CO., LTD., priority 2020, published 2023).

The test system of assay [1] is gastric tumor cells (BGC823). In words: Tumor inhibition in BGC823 tumor-bearing nude mice (Example 5, Table 8). The assay is classed as in vivo. The note with it: intratumoral injection once, 150 μl/mouse, 7th day. The source says:
The method for determining the effect of combined drug administration in animal experiments was Burgi method (Burgi Y. Pharmacology; Drug actions and reactions. Cancerres. 1978, 38(2), 284-285). The Burgi method was modified by Zhengjun JIN (Zhengjun JIN, Equal probability and curve and “Q50”, Journal of the Second Shanghai Medical College; 1981, 1, 75-86) with q calculated as: q=EA+B/(EA+EB−EA×EB). In the following examples of the present invention, the combinational pharmaceutical efficacies (drug efficacies) of drug A and drug B co-administration was determined by ratio q of actual pharmaceutical efficacy (drug efficacy)/theoretical pharmaceutical efficacy (drug efficacy) according to Zhengjun JIN method, as follows.
Nude mice were used as experimental subjects, and gastric tumor cells (BGC823) were used as modeling cells, 1×10^5 cells/mouse were injected into the right axilla subcutaneously for transplantation tumor modeling, and the average tumor volume of successfully modeled nude mice was 164.4 mm^3. The model animals were randomly divided into 14 groups, and the drugs according to the pharmacological constitutions in Table 8 were administered via intratumoral injection. Each group was dosed once with an injection volume of 150 μl/mouse; wherein the pharmaceutical compositions of groups 5, 11 were semi-fluid, the pharmaceutical compositions of other groups are liquid. On the 7th day after drug administration, the animals were euthanized, and after dissection, the tumor tissue was taken out to determine the tumor weight, and the tumor inhibition rate (r) was calculated relative to the negative control group. Further, the actual efficacy/expected efficacy ratio q of a drug could also be calculated according to the therapeutic effect (tumor inhibition rate).

Assay [2] has as its system human pancreatic cancer cells (PANC-1). In words: Tumor inhibition in PANC-1 tumor-bearing nude mice, administration volume study (Example 4, Table 6). The note with it: intratumoral once. The class given is in vivo. The procedure: Nude mice were used as experimental subjects, and human pancreatic cancer cells (PANC-1) were used as modeling cells, 1×10^5 cells/mouse were injected into the right axilla subcutaneously for transplantation tumor modeling, and the average tumor volume of successfully modeled nude mice was 213.1 mm^3. The model animals were randomly divided into 16 groups, and the drugs were administered intratumorally according to the drug components and administration volumes in Table 6, and each group was administered once. The drugs in groups 1-12 were prepared according to the method of Example 1, wherein the inactivated probiotics were heat-inactivated Saccharomyces boulardii, the probiotic water-insoluble component particles were β-glucan particles, the probiotic water-soluble component was disrupted Saccharomyces boulardii supernatant component, and the mixture of the probiotic water-insoluble component particles and water-soluble component (abbreviated as probiotic component mixture) was disrupted Saccharomyces boulardii, preparation method used was the same as that of Example 3. On the 7th day after drug administration, the animals were euthanized, and the tumor tissues were taken out after dissection to determine the tumor weight, and the tumor inhibition rate (r) was calculated relative to the negative control group.

Where [3] appears, read: injection volume 20 ul, administration volume/tumor volume 0.09, 7th day.
[4] abbreviates: injection volume 50 ul, administration volume/tumor volume 0.23, 7th day.
[5] abbreviates: injection volume 100 ul, administration volume/tumor volume 0.47, 7th day.

Molecules are shown by their SMILES.

For `O=c1[nH]cc(F)c(=O)[nH]1` [1% 5-fluorouracil, 5-fluorouracil], in assay [1], the “Tumor inhibition rate r” value is reported as 41.4% and the “Tumor weight (x ± s)” value worked out at 0.132 ± 0.069 g.
On to `CCO` [75% ethanol, ethanol], for which the “Tumor inhibition rate r” value in assay [2] (setting [3]) stood at 6.2%; in assay [2] (setting [4]) it was 20.3%; in assay [2] (setting [5]), 31.7%. For the same compound, the “Tumor weight (x ± s)” value in assay [2] (setting [3]) is 0.257 ± 0.110 g; in assay [2] (setting [4]), 0.218 ± 0.115 g; in assay [2] (setting [5]), 0.187 ± 0.064 g.
